# How the values were obtained:
# Test in all cases: relative viability (nuclei count vs DMSO), 5 days (fraction); higher = more cells survive
# LXF-289 = system: LXF-289
# How it was run: (§1)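 For relative viability, nuclei counts in treated wells were divided by those in vehicle wells. Lung cancer cell lines had been pin-tool dosed in 1536-well plates the day after seeding and cultured for 5 days, then fixed and stained in one step (final 0.05% Triton X-100, 1% formaldehyde, 1 ug/ml Hoechst) and imaged at 4×. Doses were one drug alone or a fixed anchor-drug dose plus five library-drug doses (not always all listed) in √10 steps, and values are duplicate-plate medians.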
# EPLC-272H = system: EPLC-272H
# How it was run: as §1
# SW 1573 = system: SW 1573
# How it was run: as §1
# LCLC-103H = system: LCLC-103H
# How it was run: as §1
# SW 900 = system: SW 900
# How it was run: as §1
# EMC-BAC-2 = system: EMC-BAC-2
# How it was run: as §1
# RERF-LC-KJ = system: RERF-LC-KJ
# How it was run: as §1
# NCI-H1975 = system: NCI-H1975
# How it was run: as §1
# ChaGo-K-1 = system: ChaGo-K-1
# How it was run: as §1
# NCI-H2085 = system: NCI-H2085
# How it was run: as §1
# NCI-H2405 = system: NCI-H2405
# How it was run: as §1
# LU99A = system: LU99A
# How it was run: as §1
# NCI-H23 = system: NCI-H23
# How it was run: as §1
# LOU-NH91 = system: LOU-NH91
# How it was run: as §1
# NCI-H2126 = system: NCI-H2126
# How it was run: as §1
# HCC-827 = system: HCC-827
# How it was run: as §1
# SK-LU-1 = system: SK-LU-1
# How it was run: as §1
# HCC-366 = system: HCC-366
# How it was run: as §1
# HCC-78 = system: HCC-78
# How it was run: as §1
# HCC-44 = system: HCC-44
# How it was run: as §1
# NCI-H3122 = system: NCI-H3122
# How it was run: as §1
# NCI-H1666 = system: NCI-H1666
# How it was run: as §1
# LK-2 = system: LK-2
# How it was run: as §1
compound,measurement,setting,value
Clc1ccc(Nc2nnc(Cc3ccncc3)c3ccccc23)cc1 [Vatalanib] + Cc1cc(Nc2cc(N3CCN(C)CC3)nc(Sc3ccc(NC(=O)C4CC4)cc3)n2)n[nH]1 [Tozasertib] (partner 0.1 µM),relative viability,LXF-289; first compound 0.04 µM,0.201
same,relative viability,LXF-289; first compound 0.1265 µM,0.168
same,relative viability,LXF-289; first compound 0.4 µM,0.229
same,relative viability,LXF-289; first compound 1.265 µM,0.192
same,relative viability,LXF-289; first compound 4 µM,0.212
same,relative viability,EPLC-272H; first compound 0.04 µM,0.319
same,relative viability,EPLC-272H; first compound 0.1265 µM,0.271
same,relative viability,EPLC-272H; first compound 0.4 µM,0.411
same,relative viability,EPLC-272H; first compound 1.265 µM,0.324
same,relative viability,EPLC-272H; first compound 4 µM,0.249
same,relative viability,SW 1573; first compound 0.04 µM,0.145
same,relative viability,SW 1573; first compound 0.1265 µM,0.165
same,relative viability,SW 1573; first compound 0.4 µM,0.215
same,relative viability,SW 1573; first compound 1.265 µM,0.257
same,relative viability,SW 1573; first compound 4 µM,0.153
same,relative viability,LCLC-103H; first compound 0.04 µM,0.482
same,relative viability,LCLC-103H; first compound 0.1265 µM,0.518
same,relative viability,LCLC-103H; first compound 0.4 µM,0.532
same,relative viability,LCLC-103H; first compound 1.265 µM,0.503
same,relative viability,LCLC-103H; first compound 4 µM,0.502
same,relative viability,SW 900; first compound 0.1265 µM,0.563
same,relative viability,SW 900; first compound 0.4 µM,0.68
same,relative viability,SW 900; first compound 1.265 µM,0.482
same,relative viability,SW 900; first compound 4 µM,0.572
same,relative viability,EMC-BAC-2; first compound 0.04 µM,0.218
same,relative viability,EMC-BAC-2; first compound 0.1265 µM,0.302
same,relative viability,EMC-BAC-2; first compound 0.4 µM,0.308
same,relative viability,EMC-BAC-2; first compound 1.265 µM,0.264
same,relative viability,EMC-BAC-2; first compound 4 µM,0.305
same,relative viability,RERF-LC-KJ; first compound 0.04 µM,0.602
same,relative viability,RERF-LC-KJ; first compound 0.1265 µM,0.555
same,relative viability,RERF-LC-KJ; first compound 0.4 µM,0.511
same,relative viability,RERF-LC-KJ; first compound 1.265 µM,0.454
same,relative viability,RERF-LC-KJ; first compound 4 µM,0.436
same,relative viability,NCI-H1975; first compound 0.04 µM,0.835
same,relative viability,NCI-H1975; first compound 0.1265 µM,0.687
same,relative viability,NCI-H1975; first compound 0.4 µM,0.726
same,relative viability,NCI-H1975; first compound 1.265 µM,0.535
same,relative viability,NCI-H1975; first compound 4 µM,0.424
same,relative viability,ChaGo-K-1; first compound 0.04 µM,0.241
same,relative viability,ChaGo-K-1; first compound 0.1265 µM,0.231
same,relative viability,ChaGo-K-1; first compound 0.4 µM,0.242
same,relative viability,ChaGo-K-1; first compound 1.265 µM,0.235
same,relative viability,ChaGo-K-1; first compound 4 µM,0.235
same,relative viability,NCI-H2085; first compound 0.04 µM,0.796
same,relative viability,NCI-H2085; first compound 0.1265 µM,0.831
same,relative viability,NCI-H2085; first compound 0.4 µM,0.829
same,relative viability,NCI-H2085; first compound 1.265 µM,0.744
same,relative viability,NCI-H2085; first compound 4 µM,0.637
same,relative viability,NCI-H2405; first compound 0.04 µM,0.798
same,relative viability,NCI-H2405; first compound 0.1265 µM,0.726
same,relative viability,NCI-H2405; first compound 1.265 µM,0.627
same,relative viability,NCI-H2405; first compound 4 µM,0.663
same,relative viability,LU99A; first compound 0.04 µM,0.282
same,relative viability,LU99A; first compound 0.1265 µM,0.289
same,relative viability,LU99A; first compound 0.4 µM,0.305
same,relative viability,LU99A; first compound 1.265 µM,0.266
same,relative viability,LU99A; first compound 4 µM,0.286
same,relative viability,NCI-H23; first compound 0.04 µM,0.435
same,relative viability,NCI-H23; first compound 0.1265 µM,0.373
same,relative viability,NCI-H23; first compound 0.4 µM,0.364
same,relative viability,NCI-H23; first compound 1.265 µM,0.314
same,relative viability,NCI-H23; first compound 4 µM,0.578
same,relative viability,LOU-NH91; first compound 0.04 µM,0.768
same,relative viability,LOU-NH91; first compound 0.1265 µM,0.634
same,relative viability,LOU-NH91; first compound 1.265 µM,0.652
same,relative viability,LOU-NH91; first compound 4 µM,0.621
same,relative viability,NCI-H2126; first compound 0.04 µM,0.808
same,relative viability,NCI-H2126; first compound 0.1265 µM,0.769
same,relative viability,NCI-H2126; first compound 0.4 µM,0.829
same,relative viability,NCI-H2126; first compound 1.265 µM,0.805
same,relative viability,NCI-H2126; first compound 4 µM,0.82
same,relative viability,HCC-827; first compound 0.04 µM,0.378
same,relative viability,HCC-827; first compound 0.1265 µM,0.423
same,relative viability,HCC-827; first compound 0.4 µM,0.463
same,relative viability,HCC-827; first compound 1.265 µM,0.429
same,relative viability,HCC-827; first compound 4 µM,0.367
same,relative viability,SK-LU-1; first compound 0.04 µM,0.374
same,relative viability,SK-LU-1; first compound 0.1265 µM,0.33
same,relative viability,SK-LU-1; first compound 0.4 µM,0.404
same,relative viability,SK-LU-1; first compound 1.265 µM,0.349
same,relative viability,SK-LU-1; first compound 4 µM,0.322
same,relative viability,HCC-366; first compound 0.04 µM,0.119
same,relative viability,HCC-366; first compound 0.1265 µM,0.0909
same,relative viability,HCC-366; first compound 0.4 µM,0.161
same,relative viability,HCC-366; first compound 1.265 µM,0.103
same,relative viability,HCC-366; first compound 4 µM,0.095
same,relative viability,HCC-78; first compound 0.04 µM,0.447
same,relative viability,HCC-78; first compound 0.1265 µM,0.494
same,relative viability,HCC-78; first compound 0.4 µM,0.559
same,relative viability,HCC-78; first compound 1.265 µM,0.436
same,relative viability,HCC-78; first compound 4 µM,0.493
same,relative viability,HCC-44; first compound 0.04 µM,1.1
same,relative viability,HCC-44; first compound 0.1265 µM,0.887
same,relative viability,HCC-44; first compound 0.4 µM,0.91
same,relative viability,HCC-44; first compound 1.265 µM,0.907
same,relative viability,HCC-44; first compound 4 µM,0.815
same,relative viability,NCI-H3122; first compound 0.04 µM,0.401
same,relative viability,NCI-H3122; first compound 0.1265 µM,0.358
same,relative viability,NCI-H3122; first compound 1.265 µM,0.378
same,relative viability,NCI-H3122; first compound 4 µM,0.385
same,relative viability,NCI-H1666; first compound 0.04 µM,0.617
same,relative viability,NCI-H1666; first compound 0.1265 µM,0.569
same,relative viability,NCI-H1666; first compound 0.4 µM,0.615
same,relative viability,NCI-H1666; first compound 1.265 µM,0.568
same,relative viability,NCI-H1666; first compound 4 µM,0.55
same,relative viability,LK-2; first compound 0.04 µM,0.164
same,relative viability,LK-2; first compound 0.1265 µM,0.161
same,relative viability,LK-2; first compound 0.4 µM,0.173
same,relative viability,LK-2; first compound 1.265 µM,0.182
same,relative viability,LK-2; first compound 4 µM,0.203

# From the supplement of paper PMC10307832
